From patent publication US9809861B2, “Method of evaluating inhibitory effect on damp-dry malodor” (Kao Corporation, priority 2012, dated 2017) come the findings set out here.

Test [1] deals with Moraxella sp. KMC4-1. As to the kind of experiment: Quantification of 4M3H produced in model examination cloth (LC-FL). To be noted: for Ratio of suppressing 4M3H production: cotton cloth with 0.5 mg 14-methylhexadecanoic acid, 24 hours, 37° C., relative to no test substance, Substance (1) 10 ppm, (2)(3)(5)(6) 100 ppm, (4) 500 ppm; for 4M3H production inhibition ratio: summary of Table 14. The class given is cell-based. How it is done: Subsequently, by using Moraxella sp. KMC4-1, which is one kind of the microorganisms which produce damp-dry malodor-causing substances, sensory evaluation of the inhibitory effect on damp-dry malodor by the test substance and measurement of production amount of 4M3H as one kind of the damp-dry malodor-causing substances were carried out.
Moraxella sp. KMC4-1 was inoculated as a test microbe onto SCD-LP agar medium (manufactured by Wako Pure Chemical Industries, Ltd.) and cultured for 1 to 2 weeks at room temperature to give a pre-culture plate. Colony surface was scraped off from the pre-culture plate, suspended in 5 mL of physiological saline, and OD600 was adjusted to 1.0 (about 10^8 CFU/mL).
A cotton jersey cloth obtained in a constant state after sterilization and drying at 25° C., 40% RH (cotton jersey manufactured by Shikisensha Colo., LTD., without silket finish) was cut to a square of 2 cm×2 cm. To the cloth, a solution prepared by dissolving 0.5 mg of 14-methylhexadecanoic acid, as a sebaceous dirt component, in 0.1 mL methanol, was applied. Then, methanol was dried to solid, to give a model examination cloth.
[…] It was then dried for 2 hours at room temperature to dry methanol. Thereafter, 0.1 mL of the microbe suspension was coated onto the model examination cloth, and cultured for 24 hours in a petri dish using an incubator at 37° C. with relative humidity of 70%, to obtain a microbe-fixed cloth.
Further, the model examination cloth was analyzed by using LC-FL (liquid chromatography apparatus: HITACHI ELITE LaChrom (trade name, manufactured by Hitachi, Ltd.), column: Lichrosphere 100 RP-8(e) (trade name, manufactured by Agilent Technologies, Inc., 5 μm×125 mm×4 mmφ), column temperature: 40° C., eluent: a mixed solution of acetonitrile/water=7/3 (volume ratio), flow rate: 1.0 mL/min, detector: excitation wavelength (365 nm), measurement wavelength (412 nm)), and thereby quantification of 4M3H thus produced in the model examination cloth was carried out. Ratio of the produced 4M3H amount relative to the 4M3H production amount when no test substance was added was calculated, and then ratio of suppressing 4M3H production was calculated.

The test system of test [2] is Moraxella sp. KMC4-1. Description: Growth-inhibitory test. The class given is cell-based. To be noted: SCD liquid medium, 24 hours, 35° C., (4) 500 ppm; for Growth-inhibitory effect: initial 10^4 CFU/mL, Substance (1) 10 ppm, (2)(3)(5)(6) 100 ppm; for Growth-inhibitory effect: bacteria number decrease compared to the control: Substance (2) 100 ppm. The procedure: To 4 mL of SCD liquid medium (manufactured by NIHON PHARMACEUTICAL CO., LTD), the substances (1) to (7) each were added so as to be the final concentration described in Table 15. As a control, a medium system not added with any test substance was also prepared. To the medium, the precultured Moraxella sp. KMC4-1 was inoculated so as to be the initial concentration of 10^4 CFU/mL and cultured for 24 hours at 35° C. while shaking (160 rpm). After that, it was subjected to serial dilution using LP dilution solution (NIHON PHARMACEUTICAL CO., LTD). Then, by using SCD-LP agar medium (NIHON PHARMACEUTICAL CO., LTD), the number of bacteria remained alive was determined.
As for the growth-inhibitory and the bactericidal effect, the evaluation was made as follows: compared to the control, when there was the bacteria number decrease of log 3 or more, it was rated as “A”; when there was the bacteria number decrease of log 1 or more but less than log 3, it was rated as “B”; and when there was the bacteria number decrease of less than log 1, it was rated as “C”.

Test [3] concerns fadD gene. As to the kind of experiment: Change in expression amount of fadD gene in the presence of test substance (real time PCR). It counts as cell-based, Moraxella sp. KMC4-1. To be noted: for Change in the expression amount of fadD gene: Substance (1) 10 ppm, (2)(3)(5)(6) 100 ppm, (4) 500 ppm; for expression amount of the fadD gene by the microorganisms: summary of Table 13. How it is done: (§1) The substances (1) to (7) described below each were added to 4 mL SCD liquid medium (manufactured by NIHON PHARMACEUTICAL CO., LTD). As a control, a medium system not added with any test substance was also prepared. To these medium, one platinum loop of precultured Moraxella sp. KMC4-1 was inoculated and cultured for 24 hours at 35 C while shaking (160 rpm).
(§2) To the cell liquid cultured for 24 hours, 10 mg of 16-methyloctadecanoic acid was added as a sebaceous dirt component. After culturing again for 6 hours at 35° C., the cells were collected. As a control, a system not added with a sebaceous dirt component was also cultured and cells were collected therefrom.
(§3) An RNA sample was prepared from the collected cells in the same manner as in the test example 1.
(§4) Reaction solutions for real time PCR were prepared in the same manner as above, except that, instead of the primer set including the primer containing the oligonucleotide having the base sequence set forth in SEQ ID NO: 13 and the primer containing the oligonucleotide having the base sequence set forth in SEQ ID NO: 14, the primer set described in Tables 11 to 13 was used.
(§5) The reaction solutions for real time PCR each were subjected to a gene amplification by using an automatic gene amplification thermal cycler DICE Real time system II (manufactured by Takara Bio Inc.), and then the expression amount of each of the fatty acid desaturase gene (the Δ9desaturase gene) and the β oxidation-relating enzyme genes (the fadB gene and the fadD gene) was measured. PCR reaction conditions were 40 cycles of (i) a thermal denaturation reaction at 95° C. for 20 seconds, and (ii) an annealing reaction and an elongation reaction at 60° C. for 30 seconds.
(§6) By having the gene expression of 16S rRNA as an internal standard, and having the gene expression amount when adding no sebaceous dirt component and no test substance as a reference value, change in expression amount of each gene was calculated relative to the reference value. A sample, in which the expression amount of the gene was ½ times or less the reference value, was rated as “A”; a sample, in which the expression amount of the gene was more than ½ times and ⅔ times or less the reference value, was rated as “B”; and a sample, in which the expression amount of the gene was more than ⅔ times the reference value, was rated as “C”.
On the technique in general: In qPCR the cycle at which signal appears reflects the starting amount.

In test [4] the test system is fadB gene. Description: Change in expression amount of fadB gene in the presence of test substance (real time PCR). It counts as cell-based, Moraxella sp. KMC4-1. To be noted: for Change in the expression amount of fadB gene: Substance (1) 10 ppm, (2)(3)(5)(6) 100 ppm, (4) 500 ppm; for expression amount of the fadB gene by the microorganisms: summary of Table 12. How it is done:
as §1, §2, §3, §4, §5, §6

Regarding `CNc1ccccc1C(=O)OC` [Substance (3)], the “Ratio of suppressing 4M3H production” value in test [1] amounted to 91%. For the same compound, in test [1], the “4M3H production inhibition ratio” value is on record as “high”. Moreover, in test [2], the Growth-inhibitory effect result was “C (the bacteria number decrease of less than log 1)”. In addition, the “Change in the expression amount of fadD gene” value (“Change … of fadD gene” for short) in test [3] (primers SEQ ID NO: 35 / 36) and in test [3] (primers SEQ ID NO: 41 / 42) was “A (the expression amount of the gene was ½ times or less the reference value)” throughout. Also, the “expression amount of the fadD gene by the microorganisms” value (“expression amount of the fadD gene” below) in test [3] is recorded as “decreased”. The “Change in the expression amount of fadB gene” value (from here on “Change … of fadB gene”) is “A (the expression amount of the gene was ½ times or less the reference value)” in test [4] (primers SEQ ID NO: 25 / 26); “A (the expression amount of the gene was ½ times or less the reference value)” in test [4] (primers SEQ ID NO: 27 / 28); “A (the expression amount of the gene was ½ times or less the reference value)” in test [4] (primers SEQ ID NO: 29 / 30); “B (the expression amount of the gene was more than ½ times and ⅔ times or less the reference value)” in test [4] (primers SEQ ID NO: 31 / 32). In addition, in test [4], the “expression amount of the fadB gene by the microorganisms” value (“expression amount of the fadB gene” below) is reported as “decreased”.
Regarding `CCCCCCCC/C=C\CCCCCCCC(=O)O` [Substance (4)], the “Ratio of suppressing 4M3H production” value in test [1] is 81%. Further, in test [1], the “4M3H production inhibition ratio” value is recorded as “high”. Besides, in test [2], the “Growth-inhibitory effect: bacteria number decrease compared to the control” value is 2 log. The Growth-inhibitory effect result in test [2] is listed as “B (the bacteria number decrease of log 1 or more but less than log 3)”. Moreover, the “Change … of fadD gene” value in test [3] (primers SEQ ID NO: 35 / 36) and in test [3] (primers SEQ ID NO: 41 / 42) was “C (the expression amount of the gene was more than ⅔ times the reference value)” throughout. In addition, the “Change … of fadB gene” value in test [4] (primers SEQ ID NO: 25 / 26), in test [4] (primers SEQ ID NO: 27 / 28), in test [4] (primers SEQ ID NO: 29 / 30) and in test [4] (primers SEQ ID NO: 31 / 32) was “A (the expression amount of the gene was ½ times or less the reference value)” in each case. In addition, the “expression amount of the fadB gene” value in test [4] is on record as “decreased”.
Take `CC(=O)OC(C)(C)Cc1ccccc1` [Substance (2)]: the “Ratio of suppressing 4M3H production” value in test [1] was 100%. Also, in test [1], the “4M3H production inhibition ratio” value is “high”. In addition, the “Growth-inhibitory effect: bacteria number decrease compared to the control” value in test [2] came to 2 log. Moreover, the Growth-inhibitory effect result in test [2] was “B (the bacteria number decrease of log 1 or more but less than log 3)”. The “Change … of fadD gene” value in test [3] (primers SEQ ID NO: 35 / 36) and in test [3] (primers SEQ ID NO: 41 / 42) was “A (the expression amount of the gene was ½ times or less the reference value)” each time. Besides, the “expression amount of the fadD gene” value in test [3] is listed as “decreased”. Also, the “Change … of fadB gene” value in test [4] (primers SEQ ID NO: 25 / 26), in test [4] (primers SEQ ID NO: 27 / 28), in test [4] (primers SEQ ID NO: 29 / 30) and in test [4] (primers SEQ ID NO: 31 / 32) was “A (the expression amount of the gene was ½ times or less the reference value)” each time. In test [4], the “expression amount of the fadB gene” value is given as “decreased”.
In the case of `O=C[C@H](O)[C@@H](O)[C@H](O)[C@H](O)CO` [Substance (5)], the “Ratio of suppressing 4M3H production” value in test [1] came out at 0%. In addition, in test [2], the Growth-inhibitory effect result is reported as “C (the bacteria number decrease of less than log 1)”. Further, the “Change … of fadD gene” value in test [3] (primers SEQ ID NO: 35 / 36) and in test [3] (primers SEQ ID NO: 41 / 42) was “C (the expression amount of the gene was more than ⅔ times the reference value)” each time. In addition, the “Change … of fadB gene” value in test [4] (primers SEQ ID NO: 25 / 26), in test [4] (primers SEQ ID NO: 27 / 28), in test [4] (primers SEQ ID NO: 29 / 30) and in test [4] (primers SEQ ID NO: 31 / 32) was “C (the expression amount of the gene was more than ⅔ times the reference value)” throughout.
On to `CCCCCCCCCC=O` [Substance (1)], for which the “Ratio of suppressing 4M3H production” value in test [1] turned out to be 100%. In test [1], the “4M3H production inhibition ratio” value is on record as “high”. Further, the Growth-inhibitory effect result in test [2] is given as “C (the bacteria number decrease of less than log 1)”. Further, the “Change … of fadD gene” value in test [3] (primers SEQ ID NO: 35 / 36) and in test [3] (primers SEQ ID NO: 41 / 42) was “A (the expression amount of the gene was ½ times or less the reference value)” in each case. In addition, the “expression amount of the fadD gene” value in test [3] is reported as “decreased”. In addition, the “Change … of fadB gene” value in test [4] (primers SEQ ID NO: 25 / 26), in test [4] (primers SEQ ID NO: 27 / 28), in test [4] (primers SEQ ID NO: 29 / 30) and in test [4] (primers SEQ ID NO: 31 / 32) was “C (the expression amount of the gene was more than ⅔ times the reference value)” each time.
